Assay results: ChEMBL document CHEMBL1201862, “PubChem BioAssay data set” (2004)
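Where inhibition never reached the appropriate level, the endpoint shown equals the highest concentration tested. Otherwise, values were interpolated linearly from a five-concentration, 48-hour dose response in 96-well plates. GI50: concentration for 50% inhibition of growth.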 The source made the active and inactive calls. Rule as the data show it: active = GI50 up to about 1.1 µM and inactive = higher.

Legend:
Assay in all cases: NCI tumour cell line growth inhibition, 48 h
HCT-116 = test system: HCT-116
HT-29 = test system: HT-29
U-251 = test system: U-251
RPMI-8226 = test system: RPMI-8226
SW-620 = test system: SW-620
IGROV-1 = test system: IGROV-1
K562 = test system: K562
OVCAR-4 = test system: OVCAR-4
SNB-19 = test system: SNB-19
SK-OV-3 = test system: SK-OV-3
SK-MEL-28 = test system: SK-MEL-28
ACHN = test system: ACHN
EKVX = test system: EKVX
RXF 393 = test system: RXF 393
UACC-257 = test system: UACC-257
OVCAR-8 = test system: OVCAR-8
NCI-H23 = test system: NCI-H23
SF-539 = test system: SF-539
A498 = test system: A498

Measured: GI50

CN[C@H](C)[C@@H](OC)c1ccccc1
inactive: HCT-116 > 100 µM | HT-29 > 100 µM | U-251 > 100 µM | RPMI-8226 > 100 µM | SW-620 > 100 µM | IGROV-1 > 100 µM | K562 > 100 µM | OVCAR-4 > 100 µM | SNB-19 > 100 µM | SK-OV-3 > 100 µM | SK-MEL-28 > 100 µM | ACHN > 100 µM | EKVX > 100 µM | RXF 393 > 100 µM | UACC-257 > 100 µM | OVCAR-8 > 100 µM

Cc1ccccc1N(CCC#N)C1=NN(C(=O)CC(=O)Nc2ccc(Cl)cc2)C(c2ccccc2)C1 (stereo not drawn)
inactive: HCT-116 > 100 µM | NCI-H23 > 100 µM | HT-29 > 100 µM | U-251 > 100 µM | RPMI-8226 > 100 µM | SW-620 > 100 µM | IGROV-1 > 100 µM | K562 > 100 µM | OVCAR-4 > 100 µM | SNB-19 > 100 µM | SK-OV-3 > 100 µM | SK-MEL-28 > 100 µM | ACHN > 100 µM | EKVX > 100 µM | RXF 393 > 100 µM | UACC-257 > 100 µM | SF-539 > 100 µM | OVCAR-8 > 100 µM

Cc1cc(O)nc(NNC(C#N)c2ccc([N+](=O)[O-])cc2)n1 (stereo not drawn)
inactive: HCT-116 80.4 µM | NCI-H23 > 100 µM | HT-29 > 100 µM | U-251 > 100 µM | RPMI-8226 > 100 µM | SW-620 95.3 µM | IGROV-1 76.9 µM | K562 > 100 µM | OVCAR-4 > 100 µM | SK-OV-3 > 100 µM | SK-MEL-28 > 100 µM | ACHN 74.8 µM | RXF 393 93.8 µM | UACC-257 > 100 µM | SF-539 > 100 µM | OVCAR-8 > 100 µM

C=Cc1ccc(C)[n+](C[Si](C)(C)O[Si](C)(C)C[n+]2cc(C=C)ccc2C)c1
inactive: HCT-116 > 100 µM | NCI-H23 > 100 µM | HT-29 > 100 µM | U-251 > 100 µM | RPMI-8226 > 100 µM | SW-620 > 100 µM | IGROV-1 > 100 µM | K562 > 100 µM | OVCAR-4 > 100 µM | SNB-19 > 100 µM | SK-OV-3 > 100 µM | SK-MEL-28 > 100 µM | ACHN > 100 µM | EKVX 54.2 µM | RXF 393 > 100 µM | UACC-257 > 100 µM | SF-539 > 100 µM | OVCAR-8 > 100 µM

CCN(CC)CCNC(=O)c1ccccc1Nc1c(Cl)cccc1Cl
inactive: HCT-116 12.8 µM | NCI-H23 18.2 µM | HT-29 6.15 µM | U-251 6.56 µM | RPMI-8226 12.2 µM | SW-620 15.3 µM | IGROV-1 19.1 µM | K562 > 10 µM | OVCAR-4 14.8 µM | SNB-19 16.4 µM | SK-OV-3 16.7 µM | SK-MEL-28 18.3 µM | ACHN 17.5 µM | EKVX 12.7 µM | RXF 393 12.3 µM | UACC-257 15.1 µM | SF-539 17 µM | OVCAR-8 16.4 µM

N=C(N)NS(=O)(=O)c1ccc(NCc2c3ccccc3[n+]([O-])c3ccccc23)cc1
inactive: HCT-116 8.11 µM | NCI-H23 21.8 µM | HT-29 41.5 µM | U-251 16.6 µM | RPMI-8226 12.4 µM | SW-620 16.4 µM | IGROV-1 19.8 µM | K562 25.7 µM | OVCAR-4 23.8 µM | SNB-19 18.8 µM | SK-OV-3 > 100 µM | SK-MEL-28 20.4 µM | ACHN 17 µM | EKVX > 100 µM | UACC-257 74.6 µM | A498 13.6 µM | OVCAR-8 28.5 µM

O=c1cccccc1NCCCCNc1cccccc1=O
inactive: HCT-116 > 100 µM | NCI-H23 67.8 µM | HT-29 > 100 µM | U-251 > 100 µM | RPMI-8226 43.4 µM | SW-620 67.6 µM | IGROV-1 > 100 µM | K562 > 100 µM | OVCAR-4 50.8 µM | SNB-19 61 µM | SK-OV-3 > 100 µM | SK-MEL-28 71.1 µM | ACHN 54.8 µM | EKVX > 100 µM | UACC-257 > 100 µM | A498 > 100 µM | OVCAR-8 > 100 µM

COC[C@@H](/N=C/N1CCc2cc(OC)c(OC)cc2[C@@H]1C)C(C)(C)C
inactive: HCT-116 > 100 µM | NCI-H23 > 100 µM | HT-29 79.8 µM | U-251 > 100 µM | RPMI-8226 > 100 µM | SW-620 > 100 µM | IGROV-1 > 100 µM | K562 > 100 µM | OVCAR-4 > 100 µM | SNB-19 > 100 µM | SK-OV-3 > 100 µM | SK-MEL-28 > 100 µM | ACHN > 100 µM | EKVX > 100 µM | RXF 393 > 100 µM | UACC-257 > 100 µM | SF-539 > 100 µM | OVCAR-8 > 100 µM
